Data from article PMC9027957, “Interspecies Comparisons of the Effects of Potential Antiviral 3-Amidinophenylalanine Derivatives on Cytochrome P450 1A2 Isoenzyme” (Veterinary Sciences, 2022).
Where two headings read alike, the source gives them in different places.

Key:
[1] = 60 min microsomal stability assay (UPLC-MS/MS), beagle liver microsomes; format: in vitro ADME; conditions: 50 µM
Procedure: (§1) Rat, beagle (Gibco, Biocenter, Szeged, Hungary), and cynomolgus monkey (Primacyt, Schwerin, Germany) liver microsomes were exposed to inhibitors MI-432, MI-463, MI-482, or MI-1900 at 50 µM for 60 min. The final microsomal protein concentration in the suspension was 0.6 mg/mL in each case. The reaction buffer (100 mM phosphate buffer pH 7.4) also contained 1 mM nicotinamide adenine dinucleotide phosphate (NADPH), 5 mM MgCl2, 10 mM glucose-6-phosphate (G6P), and 2 IU/mL glucose-6-phosphate dehydrogenase (G6PD). The reaction was terminated by the addition of ice-cold acetonitrile (ACN) with the ratio of sample ACN volume = 1:2. The precipitated protein was removed by centrifugation at 10,000× g for 10 min, and the supernatants were used for subsequent analyses.
(§2) The determination of all analytes was carried out using an UPLC/MS/MS system, which consisted of an HPLC apparatus (SCIEX ExionLC^TM UPLC, Framigham, MA, USA) and a SCIEX Qtrap 4500 triple-quadrupole mass spectrometer (Framigham, MA, USA) equipped with a SCIEX Turbo V electrospray ionization source. The HPLC columns used were LiChrospher RP Select B (125 × 4.0 mm, 5.0 μm, C8 stationary phase). Next, 0.1% trifluoroacetic acid in ultra-purified water (A) and acetonitrile (B) were used as mobile phases for chromatographic separations applying a gradient elution. The HPLC gradient program was the following: between 0 and 10 min, a ratio of 70% A and 30% B; from 10 to 20 min, linearly increasing to a ratio of 50% A and 50% B; from 20 to 21 min, maintained at a ratio of 50% A and 50% B; from 21 to 22 min, linearly decreasing back to a ratio of 70% A and 30% B; and between 22 min and 30 min, maintained at a ratio of 70% A and 30% B. The run time was 30 min, the column temperature was adjusted to 35 °C, and the flow rate was 1 mL/min.

[2] = 60 min microsomal stability assay (UPLC-MS/MS), cynomolgus monkey liver microsomes; format: in vitro ADME; conditions: 50 µM
Procedure: as §1, §2

CYP1A2 [3] = target: T1, CYP1A2 (Macaca fascicularis, UniProt O77809); conditions: 2 h, 50 µM
T1 sequence (O77809 1-516): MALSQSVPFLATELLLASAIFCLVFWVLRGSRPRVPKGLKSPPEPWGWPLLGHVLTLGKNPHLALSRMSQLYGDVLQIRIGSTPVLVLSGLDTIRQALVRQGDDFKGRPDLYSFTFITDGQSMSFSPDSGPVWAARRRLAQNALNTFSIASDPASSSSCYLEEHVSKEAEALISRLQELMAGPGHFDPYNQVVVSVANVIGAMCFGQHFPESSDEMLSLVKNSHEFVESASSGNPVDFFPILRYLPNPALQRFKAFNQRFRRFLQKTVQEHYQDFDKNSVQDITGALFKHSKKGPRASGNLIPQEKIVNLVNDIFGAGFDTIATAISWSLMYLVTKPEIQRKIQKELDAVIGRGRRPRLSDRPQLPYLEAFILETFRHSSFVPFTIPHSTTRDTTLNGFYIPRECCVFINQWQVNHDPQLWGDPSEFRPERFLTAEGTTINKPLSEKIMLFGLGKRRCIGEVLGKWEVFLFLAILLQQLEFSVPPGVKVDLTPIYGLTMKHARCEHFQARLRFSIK
Procedure: (§4) For the measurements of CYP1A2 activities, hepatocytes were grown on 24-well collagen-coated membrane inserts (Costar Transwell-PTFE membrane, 6.5 mm, pore size: 0.4 µm, Merck, Darmstadt, Germany). […] The determination of the CYP1A2 activities were performed using the P450-Glo CYP450 Assay (Promega, Madison, WI, USA) according to the manufacturer’s instructions.

CYP1A2 [4] = target: T2, CYP1A2 (Canis lupus familiaris, UniProt P56592); format: cell-based; conditions: dog, 2 h
T2 construct: endogenous in cells; host or cells: beagle hepatocytes
T2 sequence (P56592 1-512): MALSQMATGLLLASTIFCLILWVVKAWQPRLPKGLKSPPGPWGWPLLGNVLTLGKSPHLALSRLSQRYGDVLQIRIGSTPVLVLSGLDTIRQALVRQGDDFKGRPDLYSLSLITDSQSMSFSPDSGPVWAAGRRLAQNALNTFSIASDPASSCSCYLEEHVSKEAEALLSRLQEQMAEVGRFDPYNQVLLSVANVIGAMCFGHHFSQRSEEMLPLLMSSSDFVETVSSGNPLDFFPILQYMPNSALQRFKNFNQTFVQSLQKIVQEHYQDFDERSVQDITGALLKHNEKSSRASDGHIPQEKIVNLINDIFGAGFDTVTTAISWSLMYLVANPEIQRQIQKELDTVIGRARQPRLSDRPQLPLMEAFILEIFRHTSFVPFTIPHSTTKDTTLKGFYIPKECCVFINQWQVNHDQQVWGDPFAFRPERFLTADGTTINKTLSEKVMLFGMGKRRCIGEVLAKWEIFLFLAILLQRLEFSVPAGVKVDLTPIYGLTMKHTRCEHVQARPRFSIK
Procedure: as §4

[5] = 60 min microsomal stability assay (UPLC-MS/MS), rat liver microsomes; format: in vitro ADME; conditions: 50 µM
Procedure: as §1, §2

beagle hepatocytes = assay: MTS cytotoxicity assay in beagle primary hepatocytes; format: cell-based; conditions: 50 μM and 100 μM, 24 h
Procedure: (§3) Rat, beagle, and cynomolgus monkey cryopreserved primary hepatocytes were obtained from Primacyt Cell Culture Company (Schwerin, Germany). The thawing, plating, and maintenance media were purchased from Lonza Group Ltd. (Biocenter Ltd., Szeged, Hungary). Influence of inhibitors MI-432 and MI-1900 on the viability of primary […] hepatocytes was tested. Hepatocytes, grown on a 96-well plate for 24 h, were incubated with the inhibitors at 0, 50, and at 100 µM for 24 h in treated groups. The control cells were incubated only with cell maintenance medium. After removal of the medium and three-fold washing of the cells with phosphate-buffered saline (PBS), 20 μL aliquots of CellTiter 96 AQueous one solution (MTS, Promega, Bioscience, Budapest, Hungary) were pipetted into a 96-well plate, each containing 100 μL of phenol red free medium. The plate was incubated with dye for 2 h. Viability of hepatocytes was measured at 490 nm using an EZ Read Biochrom 400 microplate reader.

[6] = test system: intestinal epithelial cells (HIEC and IPEC-J2) and primary human hepatocytes (PHH); conditions: up to a concentration 50 μM; cited from earlier work
rat hepatocytes = assay: MTS cytotoxicity assay in rat primary hepatocytes; format: cell-based; conditions: 50 μM and 100 μM, 24 h
Procedure: as §3

## N=C(N)c1cccc(C[C@H](NS(=O)(=O)c2cccc(-c3ccc(Cl)cc3Cl)c2)C(=O)N2CCC(CCN)CC2)c1 [MI-432]
[1]; beagle, dog, pH 7.4
  depletion percentage of the parent compound: 23.8 ± 7%
[2]; cynomolgus monkey, pH 7.4
  depletion percentage of the parent compound: 19.6 ± 5.8%
CYP1A2 [3]
  CYP1A2 activity in cynomolgus monkey hepatocytes: significantly decrease the activity of CYP1A2
CYP1A2 [4]; 20 µM
  CYP1A2 function in beagle hepatocytes: significantly inhibited CYP1A2 function
CYP1A2 [4]; 50 µM
  CYP1A2 function in beagle hepatocytes: significantly inhibited CYP1A2 function
[5]; Sprague-Dawley, rat, pH 7.4
  depletion percentage of the parent compound: 28 ± 3.1%

## COc1ccc(-c2cccc(S(=O)(=O)N[C@@H](Cc3cccc(C(=N)N)c3)C(=O)N3CCN(C(=O)NC4CCCCC4)CC3)c2)c(OC)c1 [MI-1900]
[1]; beagle microsomes, 0.6 mg/mL protein, mean ± SD (n = 3)
  depletion percentage of the parent compound: 23.7 ± 11.1%
[2]; monkey microsomes, 0.6 mg/mL protein, mean ± SD (n = 3)
  depletion percentage of the parent compound: 26.7 ± 10.8%
CYP1A2 [3]
  CYP1A2 activity in cynomolgus monkey hepatocytes: significantly decrease the activity of CYP1A2
Beagle hepatocytes
  cell viability vs control: No significant differences
[6]
  cell death: did not cause significant cell death
[5]; rat microsomes, 0.6 mg/mL protein, mean ± SD (n = 3)
  depletion percentage of the parent compound: 30.7 ± 11.7%
Rat hepatocytes
  cell viability vs control: No significant differences
